Reference: US20120277265A1, “NOVEL POLYQUINOLINE DERIVATIVES AND THE THERAPEUTIC USE THEREOF” (CENTRE NATIONAL DE LA RECHERCHE SCIENTIFIQUE (C.N.R.S.), priority 2005, published 2012)

How the values were obtained:
[1] = 25° C., cited from earlier work; for log K1 (stability constant for the MLc species), Zn(II): ionic strength 0.1-0.2, metal ion to chelator 1/1
[2] = Stability constants of competing chelators for Zn(II) (NIST / Sillen-Martell; log Kapp by Eq. 1-2); details: at pH = 7.4, by Eq. 1 and 2
Excerpt: log Kapp=log K-log α (Eq. 1)
α=[H^+]^n/(Ka1×Ka2×Ka3× . . . Kan)+[H^+]^n-1/(Ka1×Ka2×Ka3× . . . Kan-1)+ . . . +[H^+]/Ka1+1 (Eq. 2)

Row | Compound | log K1 (stability constant for the MLc species), Zn(II) [1] | log K1 app, Zn(II) [2] | log K2 (stability constant for the M(Lc)2 species), Zn(II) ([1]; ionic strength 0.1-0.2)
1 | NCCNCCNCCN [Trien, triethylenetetramine] | 11.9 | 7.8 | –
2 | O=C(O)CN(CC(=O)O)CC(=O)O [NTA, nitrilotriacetic acid] | 10.5 | 8.0 | 3.8
